According to patent US20150307841A1, “Composition for Promoting Differentiation and Proliferation of Neural Stem Cell and Neural Precursor Cell” (priority 2014, published 2015):

Columns and labels:
[1] = test system: memory-deficient model rats; test: Y-maze test in ibotenic acid-induced memory-deficient model rats; assay type: in vivo, rat
Description: Ibotenic acid is a neurotoxin present in mushrooms and is known to cause powerful damage to neurons when directly injected into the brain of mice or rats. In particular, because senile plaques and neuronal cell death appear in the entorhinal cortex and hippocampus in early Alzheimer's disease patients (Ueki A et al. J Neurol Sci, 1994), memory-deficient model rats were generated by injecting ibotenic acid (IBO) into the entorhinal cortex. The surgical protocol followed Heo H et al.'s method (J Ethnopharmacol, 2009) with some modifications. In the model animals, the injection of ibotenic acid induces cell death not only in the entorhinal cortex but also in the CA and DG regions of the hippocampus and impairs hippocampus-related learning and memory abilities.
The 6-week-old rats were anesthetized with equithesin (350 mM pentobarbital sodium, 250 mM chloral hydrate, 85 mM MgSO4 and 40% propylene glycol in 10% ethanol, 2 mL/kg). To induce cell death in the dentate gyrus and hippocampus in addition to the entorhinal cortex, ibotenic acid (1.5 μL per animal, 1 mg/mL) was injected into the entorhinal cortex as follows. The rat was placed in a stereotaxic device (Stoelting Co., Wood Dale, Ill., USA) with the incisor bar 3.4 mm below the interaural line. The needle was positioned 10° right to the midsaggital plane. Then, ibotenic acid was injected at 3 locations into the entorhinal cortex and medial entorhinal cortex at a rate of 0.35 μL/min (first, AP: 8.4 mm, ML: 4.8 mm, DV: 4.6-4.8 mm; second, AP: 8.4 mm, ML: 4.8 mm, DV: 2.6-2.8 mm; third, AP: 8.8 mm, ML: 3.65 mm, DV: 4.8 mm). […]
The maze was made of black-colored acryl and was positioned at equal angles. […] Arm entry was recorded when the hind paws were completely placed in the arm. Consecutive entry into 3 arms in an alternative order was defined as successive entries on overlapping triplet sets, and alternation percentage was calculated as the ratio of actual to possible alternations (defined as the total number of arm entries minus 2), multiplied by 100. […]

[2] = test system: newly born neural precursor cells in hippocampal tissue slices; test: Immunohistochemical analysis of BrdU and subtype markers 4 weeks after oral administration (Experimental Example 2); assay type: in vivo, rat; set-up: Number of BrdU-positive cells and newly born dentate granular cells (DGCs) versus IBO group / Number of cells expressing both NeuN and BrdU versus ibotenic acid-administered group / Cholinergic neurons (total endogenous ChAT-positive cells) at 4 weeks versus 1 week after oral administration: dose or concentration left out as unconfirmed
Description: In order to confirm the survival and differentiation of newly born neural precursor cells 4 weeks after the oral administration of soyasaponin I, it was observed whether the BrdU-expressing cells express a mature neuron marker and cell subtype markers (NeuN, VGluT1, GAD67) simultaneously.
After conducting the 3 behavioral tests, the rats were sacrificed for immunohistochemical analysis. Over 5 animals from each group were used for the immunohistochemical analysis.
Following the same procedure as described in (4) of Experimental Example 2, incubation was performed at 37° C. for 30 minutes in 2 N HCl after permeabilization in 0.5% Triton X-100 for 20 minutes for double staining of BrdU/subtype cell markers ([…], VGluT1, NeuN).
In the immunohistochemical analysis, the number of the cells immnunostained against each antibody was counted from 5 or 6 hippocampal coronal sections. For each staining analysis, every fifth cryosections of the hippocampal region of brain tissues (AP: bregma −4.5 to −4.3 mm) were taken for immunostaining. The number of the immnunostained cells was represented as an average of number of cells in the hippocampal region of one brain slice.
The number of the VGluT1- and GAD-positive cells in the brain slice samples 1 week and 4 weeks after the administration of soyasaponin I was presented per microscopic field (×400-VGluT1, ×800-GAD67) and the number of the ChAT-positive cells was presented per each hippocampal region (10-12 confocal laser microscopic fields). 5-11 animals were used per group. Western blotted membranes were analyzed using the multi-gauge, bio-imaging program on LAS-4000 Mini (Fujifilm Life Science, Stamford, Conn., USA). Densitometeric analysis of the expression ratios of VGluT1/β-actin, GAD65/67/β-actin and ChAT/β-actin was normalized to the vehicle group.

[3] = 4 weeks after oral administration
[4] = soyasaponin I 10 mg/g group (so in the source), 4 weeks after oral administration
[5] = soyasaponin I group (so in the source), 4 weeks after oral administration

## C[C@@H]1O[C@@H](O[C@H]2[C@H](O[C@H]3[C@H](O[C@H]4CC[C@@]5(C)[C@@H](CC[C@]6(C)[C@@H]5CC=C5[C@@H]7CC(C)(C)C[C@@H](O)[C@]7(C)CC[C@]56C)[C@@]4(C)CO)O[C@H](C(=O)O)[C@@H](O)[C@@H]3O)O[C@H](CO)[C@H](O)[C@@H]2O)[C@H](O)[C@H](O)[C@H]1O [soyasaponin I]
[1]; 10 mg/kg oral, tests 2 weeks after administration (Experimental Example 2)
  Y-maze number of total entries: not significantly different
[1]; Experimental Example 1, tests immediately after administration, group 1 (Soya-I)
  Y-maze spontaneous alterations (decreased memory of IBO group): improved
[1]; soyasaponin I 10 mg/kg oral, tests 2 weeks after administration (Experimental Example 2)
  Y-maze spontaneous alterations, increase compared with the non-soyasaponin I-administered group (IBO): 78.57%
[2]; [3]
  Number of BrdU-positive cells in hippocampal tissue slices at 4 weeks versus 1 week after oral administration: reduced to less than half
  Ratio of the BrdU-positive cells that express VGluT1, NeuN or GAD67 at the same time: no significant difference
[2]; 4 weeks after oral administration, any group
  BrdU-positive cells among hippocampal cells expressing GFAP, TH and ChAT: barely detected
[2]; [4]
  Number of BrdU-positive cells expressing GAD67 versus IBO group: 2.8 times
  Number of BrdU-positive cells expressing VGluT1 versus IBO group: higher
[2]; soyasaponin I group (so in the source)
  Cholinergic neurons (total endogenous ChAT-positive cells) at 4 weeks versus 1 week after oral administration: maintained at a similar level
[2]; [5]
  Number of BrdU-positive cells and newly born dentate granular cells (DGCs) versus IBO group: approximately 3.5 fold
  Number of cells expressing both NeuN and BrdU versus ibotenic acid-administered group: 3 times
